# Results taken from US12077503B2, “Substituted cyclic amides and their use as herbicides” (FMC CORPORATION, priority 2015, dated 2024).
# Key:
# Assay type in all cases: in vivo
# [1] = test system: ragweed (common ragweed, Ambrosia elatior); assay: Test A preemergence; settings: Ambrosia artemisiifolia, pre-emergence, 240 h, preemergence, read-out: Plant response rating, Ragweed; for pest or weed control at 125 g/ha: 125 g ai/ha, visual rating after approx. 10 d, 0 to 100 scale where 0 is no effect and 100 is complete control; for pest or weed control at 500 g/ha: 500 g ai/ha, 0 to 100 scale, 0 = no effect, 100 = complete control
# Outline: (§1)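 In a loam soil and sand blend, planted seeds got a preemergence directed soil spray, and young plants at the one- to two-leaf stage, 2–10 cm high, got a postemergence application; ~10 d greenhouse hold; injury rated visually, 0 = none, 100 = complete control.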
# [2] = test system: giant foxtail (Setaria faberii); assay: Test A preemergence; settings: Setaria faberi, pre-emergence, 240 h, preemergence, read-out: Plant response rating, Foxtail, Giant; for pest or weed control at 125 g/ha: 125 g ai/ha, visual rating after approx. 10 d, 0 to 100 scale where 0 is no effect and 100 is complete control; for pest or weed control at 500 g/ha: 500 g ai/ha, 0 to 100 scale, 0 = no effect, 100 = complete control
# Outline: as §1
# [3] = test system: barnyardgrass (Echinochloa crus-galli); assay: Test A preemergence; settings: Echinochloa crus-galli, pre-emergence, 240 h, preemergence, read-out: Plant response rating, Barnyardgrass; for pest or weed control at 125 g/ha: 125 g ai/ha, visual rating after approx. 10 d, 0 to 100 scale where 0 is no effect and 100 is complete control; for pest or weed control at 500 g/ha: 500 g ai/ha, 0 to 100 scale, 0 = no effect, 100 = complete control
# Outline: as §1
# [4] = test system: ryegrass, Italian (Italian ryegrass, Lolium multiflorum); assay: Test A preemergence; settings: Lolium multiflorum, pre-emergence, 240 h, preemergence, read-out: Plant response rating, Ryegrass, Italian; for pest or weed control at 125 g/ha: 125 g ai/ha, visual rating after approx. 10 d, 0 to 100 scale where 0 is no effect and 100 is complete control; for pest or weed control at 500 g/ha: 500 g ai/ha, 0 to 100 scale, 0 = no effect, 100 = complete control
# Outline: as §1
# [5] = test system: pigweed (Amaranthus retroflexus); assay: Test A preemergence; settings: Amaranthus retroflexus, pre-emergence, 240 h, preemergence, read-out: Plant response rating, Pigweed; for pest or weed control at 125 g/ha: 125 g ai/ha, visual rating after approx. 10 d, 0 to 100 scale where 0 is no effect and 100 is complete control; for pest or weed control at 500 g/ha: 500 g ai/ha, 0 to 100 scale, 0 = no effect, 100 = complete control
# Kochia (Kochia scoparia) [6] = assay: Test A preemergence; settings: Bassia scoparia, pre-emergence, 240 h, preemergence, read-out: Plant response rating, Kochia; for pest or weed control at 125 g/ha: 125 g ai/ha, visual rating after approx. 10 d, 0 to 100 scale where 0 is no effect and 100 is complete control; for pest or weed control at 500 g/ha: 500 g ai/ha, 0 to 100 scale, 0 = no effect, 100 = complete control
# Outline: as §1
# [7] = test system: Galium (catchweed bedstraw, Galium aparine); assay: Test A postemergence; settings: Galium, post-emergence, 240 h, 125 g ai/ha, postemergence; visual injury after approximately 10 d; 0 to 100 scale (0 no effect, 100 complete control); read-out: Plant response rating, Galium
# Outline: as §1
# [8] = test system: blackgrass (Alopecurus myosuroides); assay: Test A postemergence; settings: Alopecurus myosuroides, post-emergence, 240 h, 125 g ai/ha, postemergence; visual injury after approximately 10 d; 0 to 100 scale (0 no effect, 100 complete control); read-out: Plant response rating, Blackgrass
# Outline: as §1
# [9] = test system: ragweed (common ragweed, Ambrosia elatior); assay: Test A postemergence; settings: Ambrosia artemisiifolia, post-emergence, 240 h, 125 g ai/ha, postemergence; visual injury after approximately 10 d; 0 to 100 scale (0 no effect, 100 complete control); read-out: Plant response rating, Ragweed
# Outline: as §1
# corn (Zea mays) = assay: Test A postemergence; settings: Zea mays, post-emergence, 240 h, 125 g ai/ha, postemergence; visual injury after approximately 10 d; 0 to 100 scale (0 no effect, 100 complete control)
# Outline: as §1
# [10] = test system: giant foxtail (Setaria faberii); assay: Test A postemergence; settings: Setaria faberi, post-emergence, 240 h, 125 g ai/ha, postemergence; visual injury after approximately 10 d; 0 to 100 scale (0 no effect, 100 complete control); read-out: Plant response rating, Foxtail, Giant
# Outline: as §1
# [11] = test system: barnyardgrass (Echinochloa crus-galli); assay: Test A postemergence; settings: Echinochloa crus-galli, post-emergence, 240 h, 125 g ai/ha, postemergence; visual injury after approximately 10 d; 0 to 100 scale (0 no effect, 100 complete control); read-out: Plant response rating, Barnyardgrass
# Outline: as §1
# [12] = test system: ryegrass, Italian (Italian ryegrass, Lolium multiflorum); assay: Test A postemergence; settings: Lolium multiflorum, post-emergence, 240 h, 125 g ai/ha, postemergence; visual injury after approximately 10 d; 0 to 100 scale (0 no effect, 100 complete control); read-out: Plant response rating, Ryegrass, Italian
# Outline: as §1
# [13] = test system: pigweed (Amaranthus retroflexus); assay: Test A postemergence; settings: Amaranthus retroflexus, post-emergence, 240 h, 125 g ai/ha, postemergence; visual injury after approximately 10 d; 0 to 100 scale (0 no effect, 100 complete control); read-out: Plant response rating, Pigweed
# Outline: as §1
# Kochia (Kochia scoparia) [14] = assay: Test A postemergence; settings: Bassia scoparia, post-emergence, 240 h, 125 g ai/ha, postemergence; visual injury after approximately 10 d; 0 to 100 scale (0 no effect, 100 complete control); read-out: Plant response rating, Kochia
# Outline: as §1
# [15] = test system: wheat (Triticum aestivum); assay: Test A postemergence; settings: Triticum aestivum, post-emergence, 240 h, 125 g ai/ha, postemergence; visual injury after approximately 10 d; 0 to 100 scale (0 no effect, 100 complete control); read-out: Plant response rating, Wheat
# Outline: as §1
SMILES,pest or weed control at 125 g/ha [1] [%],pest or weed control at 500 g/ha [1] [%],pest or weed control at 125 g/ha [2] [%],pest or weed control at 500 g/ha [2] [%],pest or weed control at 125 g/ha [3] [%],pest or weed control at 500 g/ha [3] [%],pest or weed control at 125 g/ha [4] [%],pest or weed control at 500 g/ha [4] [%],pest or weed control at 125 g/ha [5] [%],pest or weed control at 500 g/ha [5] [%],pest or weed control at 125 g/ha (Kochia (Kochia scoparia) [6]) [%],pest or weed control at 500 g/ha (Kochia (Kochia scoparia) [6]) [%],pest or weed control at 125 g/ha [7] [%],pest or weed control at 125 g/ha [8] [%],pest or weed control at 125 g/ha [9] [%],"Corn plant response rating (crop injury, 0 = no effect, 100 = complete kill) at 125 g/ha (corn (Zea mays)) [%]",pest or weed control at 125 g/ha [10] [%],pest or weed control at 125 g/ha [11] [%],pest or weed control at 125 g/ha [12] [%],pest or weed control at 125 g/ha [13] [%],other results
C=CCN1C[C@H](c2ccc(OC)c(F)c2)[C@@H](C(=O)Nc2ccccc2C(F)(F)F)C1=O [Compound 723],0,0,0,50,0,0,0,0,0,0,0,0,0,0,0,0,0,0,0,0,pest or weed control at 125 g/ha (Kochia (Kochia scoparia) [14]): 0%; plant injury at 125 g/ha [15]: 0%
O=C1NC[C@H](c2ccc3c(c2)OCO3)[C@H]1C(=O)Nc1cccc(F)c1F [Compound 731],0,70,40,90,80,90,20,40,0,0,0,60,20,0,0,0,50,70,0,0,pest or weed control at 125 g/ha (Kochia (Kochia scoparia) [14]): 0%; plant injury at 125 g/ha [15]: 0%
Cc1ccc([C@H]2CN(C)C(=O)[C@@H]2C(=O)Nc2cccc(F)c2C)cc1C [Compound 732],0,70,90,90,90,100,80,80,0,20,70,90,30,50,0,70,90,90,50,0,pest or weed control at 125 g/ha (Kochia (Kochia scoparia) [14]): 20%; plant injury at 125 g/ha [15]: 80%
